ChEMBL document CHEMBL3727358, “Inhibitors of inducible form of 6-phosphofructose-2-kinase” (2014)

Key:
[1] = target: T1, 6-phosphofructo-2-kinase/fructose-2,6-bisphosphatase 3 (Homo sapiens, UniProt Q16875); experiment: Inhibition of iPFK2 (unknown origin) assessed as reduction in enzyme-mediated fructose-6-phosphate phosphorylation by measuring ATP consumption incubated for 3 hrs by luciferase-luciferin-coupled chemiluminescence assay
[2] = target: T1, 6-phosphofructo-2-kinase/fructose-2,6-bisphosphatase 3; experiment: Inhibition of iPFK2 (unknown origin) assessed as reduction in enzyme-mediated fructose-6-phosphate phosphorylation by measuring NADH absorbance pre-incubated for 10 mins before ATP/substrate addition followed by incubation for 1 hr by UV-Visible spectrometry based iPFK-2/PPI-PFK coupled enzyme assay

T1 sequence (Q16875 whole entry): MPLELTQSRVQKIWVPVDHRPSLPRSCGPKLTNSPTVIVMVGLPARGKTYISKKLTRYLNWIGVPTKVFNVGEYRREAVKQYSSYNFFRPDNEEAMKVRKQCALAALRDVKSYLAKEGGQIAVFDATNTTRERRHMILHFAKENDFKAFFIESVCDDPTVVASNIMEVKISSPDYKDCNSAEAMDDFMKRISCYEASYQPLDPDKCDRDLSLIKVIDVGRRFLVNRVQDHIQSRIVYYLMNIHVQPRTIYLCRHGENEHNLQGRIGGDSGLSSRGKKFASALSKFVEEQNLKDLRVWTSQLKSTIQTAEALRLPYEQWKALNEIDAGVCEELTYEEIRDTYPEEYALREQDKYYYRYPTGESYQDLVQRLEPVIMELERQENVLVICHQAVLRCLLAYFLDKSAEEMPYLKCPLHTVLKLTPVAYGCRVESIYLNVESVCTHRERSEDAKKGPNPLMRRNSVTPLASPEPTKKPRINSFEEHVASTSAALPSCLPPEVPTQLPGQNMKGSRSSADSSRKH

SMILES	IC50 [1]	IC50 [2]
COc1cccc(-c2cc(NC(C)c3cccc(-c4cnn(C)c4)c3)nc(C)n2)c1F (stereo not drawn)	0.5 µM	> 1 µM
CCc1coc2ccc(-c3cc(N[C@@H](C)c4cccc(Br)c4)nc(C)n3)cc12	> 1 µM	0.5 µM
Cc1cc(-c2cccc(C(C)Nc3cc(-c4ccc5ncsc5c4)nc(C)n3)c2)ccn1 (stereo not drawn)	0.5 µM	0.5 µM
Cc1nc(NC(C)c2cccc(-c3cccnc3F)c2)cc(-c2ccc3ncsc3c2)n1 (stereo not drawn)	> 1 µM	0.5 µM
